According to patent US20220340629A1, “Myosin Derived Peptides and Related Compounds with Anticoagulant Activities” (THE SCRIPPS RESEARCH INSTITUTE, priority 0001, published 2022):
pIC50: −log10 of the molar value. Starred links: 1 amine or outer side, 2 acyl side, 3 side chain; linkers in the order of their positions; H or OH if unused. Positions of bridges follow the written chain, without caps; N, C: chain ends. Non-standard residues stand in square brackets, D forms with d. Residues, ends and D or L forms follow the SMILES beside them. NMeH = CN[C@@H](Cc1c[nH]cn1)C(=O)O; Suc = O=C(CCC(=O)[*:2])[*:1]; Nle = CCCC[C@H](N)C(=O)O

Legend:
[1] = tested on: skeletal muscle myosin-supported prothrombin activation by factors Xa and Va; assay: Assay 1A: prothrombin activation by factor Xa/factor Va/myosin in purified system; assay type: biochemical, human factors Xa and Va; rabbit skeletal muscle myosin; conditions: for inhibition of myosin's procoagulant activity: data not shown; for inhibition of myosin-supported prothrombin activation at 100 μM: peptide 100 μM, FIG. 1A
[2] = tested on: thrombin generation in human platelet poor plasma with skeletal muscle myosin; assay: Assay 2A: thrombin generation, recalcification of human platelet poor plasma + myosin; assay type: biochemical; conditions: human platelet poor plasma 30%, myosin 50 nM, CaCl2 10 mmol/L; read-out: 2A (recalcification +myosin)
Description: Activities of the various peptides and derivative compounds were also examined via assays using recalcification of human plasma. [One of] these assay format (2A) involves monitoring thrombin generation in platelet poor plasma (PPP). Specifically, pooled normal human platelet poor plasma (PPP) (obtained from George King Bio Medical Inc., Overland Park, Kans.) (30%) was incubated with skeletal muscle myosin at 50 nM in the presence of peptide in DMSO or DMSO alone for 5 min at 37° C. Then, fluorogenic thrombin substrate solution (Z-Gly-Gly-Arg-AMC) (I-1140) with CaCl2 (10 mmol/L final) alone was added to the reaction mixture (total 110 μl) to initiate coagulation. Thrombin generation was followed continuously for 25 min using SPECTRAmax GEMINI XS fluorometer (Molecular Devices, Sunnyvale, Calif.) with excitation and emission wavelengths set at 360 and 460 nm, respectively. The first derivative of fluorescence versus time was used to produce thrombin generation curves with the correction for substrate consumption and inner filter effect. For this assay 96 well plate (total 110 μL) or 384 well plates (total 30 μL) were used.
Activities obtained from Assay 2A (recalcification of human plasma in the presence of myosin) were used to rank the various peptides listed in Table 3. As noted above, this assay monitors recalcification of plasma to stimulate thrombin generation. In this assay, potency of the compounds was determined as the peptide concentration for 50% inhibition of thrombin generation, defined as “IC50”.

[3] = target: skeletal muscle myosin-supported prothrombin activation by factors Xa and Va (Homo sapiens, UniProt P00742); assay: Assay 1A: prothrombin activation by factor Xa/factor Va/myosin in purified system; assay type: biochemical, human factors Xa and Va; rabbit skeletal muscle myosin; conditions: purified system, prothrombin activation with myosin; read-out: 1A (+ myosin) IC50
skeletal muscle myosin-supported prothrombin activation by factors Xa and Va (Homo sapiens, UniProt P00742), sequence (P00742 41-179): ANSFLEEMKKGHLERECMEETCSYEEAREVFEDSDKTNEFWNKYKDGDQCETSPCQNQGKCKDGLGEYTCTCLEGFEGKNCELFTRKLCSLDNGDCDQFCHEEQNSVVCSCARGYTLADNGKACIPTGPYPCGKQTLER
skeletal muscle myosin-supported prothrombin activation by factors Xa and Va (Homo sapiens, UniProt P00742), sequence (P00742 235-488): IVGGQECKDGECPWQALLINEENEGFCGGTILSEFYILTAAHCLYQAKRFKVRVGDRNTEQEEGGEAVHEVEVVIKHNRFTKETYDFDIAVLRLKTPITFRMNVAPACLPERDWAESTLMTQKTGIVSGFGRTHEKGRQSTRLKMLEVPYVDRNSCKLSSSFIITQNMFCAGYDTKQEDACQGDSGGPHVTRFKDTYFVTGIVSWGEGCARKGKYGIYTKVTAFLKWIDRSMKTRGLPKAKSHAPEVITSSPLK
skeletal muscle myosin-supported prothrombin activation by factors Xa and Va (Homo sapiens, UniProt P00742), sequence (P12259 29-737 partner): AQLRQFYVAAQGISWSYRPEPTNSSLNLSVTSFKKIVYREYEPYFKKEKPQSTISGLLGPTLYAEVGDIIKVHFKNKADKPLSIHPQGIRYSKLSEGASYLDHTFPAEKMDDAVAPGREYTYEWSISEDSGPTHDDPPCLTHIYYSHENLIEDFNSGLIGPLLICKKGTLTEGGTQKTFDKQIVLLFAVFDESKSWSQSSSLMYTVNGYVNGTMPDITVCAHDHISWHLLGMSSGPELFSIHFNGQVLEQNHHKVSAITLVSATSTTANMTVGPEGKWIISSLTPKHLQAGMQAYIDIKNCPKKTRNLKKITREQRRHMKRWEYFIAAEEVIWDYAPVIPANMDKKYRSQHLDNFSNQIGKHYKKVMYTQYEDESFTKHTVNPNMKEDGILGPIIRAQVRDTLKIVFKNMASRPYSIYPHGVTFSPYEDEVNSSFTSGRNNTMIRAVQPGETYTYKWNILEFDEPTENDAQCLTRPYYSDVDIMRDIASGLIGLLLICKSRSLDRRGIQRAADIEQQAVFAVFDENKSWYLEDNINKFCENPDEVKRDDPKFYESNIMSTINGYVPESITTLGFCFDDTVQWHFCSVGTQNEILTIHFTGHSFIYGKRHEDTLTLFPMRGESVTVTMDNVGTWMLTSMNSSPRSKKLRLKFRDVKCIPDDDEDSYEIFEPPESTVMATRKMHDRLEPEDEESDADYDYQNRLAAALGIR
skeletal muscle myosin-supported prothrombin activation by factors Xa and Va (Homo sapiens, UniProt P00742), sequence (P12259 1574-2224 partner): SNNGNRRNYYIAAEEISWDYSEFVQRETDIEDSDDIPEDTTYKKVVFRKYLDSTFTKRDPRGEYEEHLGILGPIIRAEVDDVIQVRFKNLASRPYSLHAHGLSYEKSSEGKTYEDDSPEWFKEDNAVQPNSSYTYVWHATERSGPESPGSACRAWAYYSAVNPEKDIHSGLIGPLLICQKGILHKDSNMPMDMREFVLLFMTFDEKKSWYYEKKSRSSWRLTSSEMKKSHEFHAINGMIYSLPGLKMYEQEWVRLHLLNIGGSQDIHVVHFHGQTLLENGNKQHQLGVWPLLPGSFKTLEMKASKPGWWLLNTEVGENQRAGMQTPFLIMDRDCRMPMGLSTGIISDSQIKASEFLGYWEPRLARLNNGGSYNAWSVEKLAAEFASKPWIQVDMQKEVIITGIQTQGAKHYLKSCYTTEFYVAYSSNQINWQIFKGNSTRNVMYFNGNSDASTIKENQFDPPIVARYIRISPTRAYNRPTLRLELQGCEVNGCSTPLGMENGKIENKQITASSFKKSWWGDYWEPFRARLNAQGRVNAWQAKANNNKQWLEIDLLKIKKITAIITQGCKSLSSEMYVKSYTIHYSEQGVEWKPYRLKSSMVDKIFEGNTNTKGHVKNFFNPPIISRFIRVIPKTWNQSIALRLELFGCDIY

For Cc1ccc2c(c1)C(=O)C1(O)CCN(c3ccccc3)C1=N2 (single isomer, unassigned; (-)) [(-) blebbistatin, reference compound], which “inhibition of myosin's procoagulant activity” value ([1]; up to 65 μM) is on record?
Its value is “did not inhibit”.

How did the pIC50 [2] turn out when CC[C@H](C)[C@H](NC(=O)[C@H](C)NC(=O)[C@H](CCC(=O)O)NC(=O)[C@H](CCCNC(=N)N)NC(=O)[C@H](CCCNC(=N)N)NC(=O)[C@H](CCC(=O)O)NC(=O)[C@@H](NC(=O)[C@H](CCSC)NC(=O)[C@H](CCCNC(=N)N)NC(=O)[C@H](CCC(N)=O)NC(=O)[C@H](Cc1ccc(O)cc1)NC(=O)[C@H](CCC(=O)O)NC(=O)[C@@H](NC(=O)[C@H](CCCNC(=N)N)NC(=O)[C@H](C)NC(=O)[C@H](CC(C)C)NC(=O)[C@H](Cc1ccccc1)NC(=O)CNC(=O)[C@H](CCCNC(=N)N)NC(=O)[C@H](CS)NC(=O)[C@H](CCCNC(=N)N)NC(=O)[C@H](C)N)C(C)C)C(C)C)C(=O)N[C@@H](Cc1ccccc1)C(=O)N[C@@H](CS)C(=O)N[C@H](C(=O)N[C@@H](CCC(N)=O)C(=O)N[C@H]1CCCCNC(=O)CCC(=O)NCCCC[C@@H](C(=O)N[C@H](C(=O)N[C@@H](CCCCN)C(=O)N[C@@H](Cc2c[nH]cn2)C(=O)N[C@@H](Cc2c[nH]c3ccccc23)C(=O)N2CCC[C@H]2C(=O)N[C@@H](Cc2c[nH]c3ccccc23)C(N)=O)C(C)C)NC(=O)[C@H](CCSC)NC(=O)[C@H](Cc2ccccc2)NC(=O)[C@H](CO)NC(=O)[C@H](CCCNC(=N)N)NC(=O)[C@H]([C@@H](C)CC)NC(=O)[C@H](CC(N)=O)NC1=O)[C@@H](C)CC [HC077] (H-ARCRGFLARVEYQRMVERREAIFCIQKNIRSFMKVKHWPW-NH2; linker 27-34 via Suc; N-terminus and C-terminus assumed) was run?
Its pIC50 is 4.82.

CCCC[C@H](NC(=O)[C@H](Cc1ccccc1)NC(=O)[C@H](CO)NC(=O)[C@H](CCCNC(=N)N)NC(=O)[C@@H](NC(=O)[C@H](CC(N)=O)NC(=O)[C@H](Cc1ccc(O)cc1)NC(=O)[C@H](CCC(N)=O)NC(=O)[C@@H](NC(=O)[C@H](CS)NC(=O)[C@H](Cc1ccccc1)NC(=O)[C@@H](NC(=O)[C@H](C)NC(=O)[C@H](CCC(=O)O)NC(=O)[C@H](CCCNC(=N)N)NC(=O)[C@H](CCCNC(=N)N)NC(=O)[C@H](CCC(=O)O)NC(=O)[C@@H](NC(=O)[C@H](CCCC)NC(=O)[C@H](CCCNC(=N)N)NC(=O)[C@H](CCC(N)=O)NC(=O)[C@H](Cc1ccc(O)cc1)NC(=O)[C@H](CCC(=O)O)NC(=O)[C@@H](NC(=O)[C@H](CCCNC(=N)N)NC(=O)[C@H](C)NC(=O)[C@H](CC(C)C)NC(=O)[C@H](Cc1ccccc1)NC(=O)CNC(=O)[C@H](CCCNC(=N)N)NC(=O)[C@H](CS)NC(=O)[C@H](CCCNC(=N)N)NC(=O)[C@H](C)N)C(C)C)C(C)C)[C@@H](C)CC)[C@@H](C)CC)[C@@H](C)CC)C(=O)N[C@@H](CC(N)=O)C(=O)N[C@H](C(=O)N[C@@H](CCCCN)C(=O)N[C@@H](Cc1c[nH]cn1)C(=O)N[C@@H](Cc1c[nH]c2ccccc12)C(=O)N1CCC[C@H]1C(=O)N[C@@H](Cc1c[nH]c2ccccc12)C(N)=O)C(C)C [HC095] (H-ARCRGFLARVEYQR[Nle]VERREAIFCIQYNIRSF[Nle]NVKHWPW-NH2; N-terminus and C-terminus assumed) was tested. Which pIC50 [2] did it give?
The pIC50 was 5.00.

CC[C@H](C)[C@H](NC(=O)[C@H](C)N)C(=O)N[C@@H](Cc1ccccc1)C(=O)N[C@@H](CS)C(=O)N[C@H](C(=O)N[C@@H](CCC(N)=O)C(=O)N[C@@H](Cc1ccc(O)cc1)C(=O)N[C@@H](CC(N)=O)C(=O)N[C@H](C(=O)N[C@@H](CCCNC(=N)N)C(=O)N[C@@H](CO)C(=O)N[C@@H](Cc1ccccc1)C(=O)N[C@@H](CCSC)C(=O)N[C@@H](CC(N)=O)C(=O)N[C@H](C(=O)N[C@@H](CCCCN)C(=O)N[C@@H](Cc1c[nH]cn1)C(=O)N[C@@H](Cc1c[nH]c2ccccc12)C(=O)N1CCC[C@H]1C(=O)N[C@@H](Cc1c[nH]c2ccccc12)C(=O)N[C@@H](CCSC)C(=O)N[C@@H](CCCCN)C(=O)N[C@@H](CC(C)C)C(=O)N[C@@H](Cc1ccccc1)C(=O)N[C@@H](Cc1ccccc1)C(=O)N[C@@H](CCCCN)C(=O)N[C@H](C(=O)N[C@@H](CCCCN)C(N)=O)[C@@H](C)CC)C(C)C)[C@@H](C)CC)[C@@H](C)CC [HC101] (H-AIFCIQYNIRSFMNVKHWPWMKLFFKIK-NH2; N-terminus and C-terminus assumed) was tested. Which pIC50 [2] did it give?
The pIC50 was 5.05.

How did the pIC50 [2] turn out when CC[C@H](C)[C@H](NC(=O)[C@H](C)NC(=O)[C@H](CCC(=O)O)NC(=O)[C@H](CCCNC(=N)N)NC(=O)[C@H](CCCNC(=N)N)NC(=O)[C@H](CCC(=O)O)NC(=O)[C@@H]1CCCCNC(=O)CCC(=O)NCCCC[C@@H]2NC(=O)[C@H](C)NC(=O)[C@H](CC(C)C)NC(=O)[C@H](Cc3ccccc3)NC(=O)CNC(=O)[C@H](CCCNC(=N)N)NC(=O)[C@@H](NC(=O)[C@H](CCCNC(=N)N)NC(=O)[C@H](C)N)CCCCNC(=O)CCC(=O)NCCCC[C@H](NC2=O)C(=O)N[C@@H](CCC(=O)O)C(=O)N[C@@H](Cc2ccc(O)cc2)C(=O)N[C@@H](CCC(N)=O)C(=O)N[C@@H](CCCNC(=N)N)C(=O)N[C@@H](CCSC)C(=O)N1)C(=O)N[C@@H](Cc1ccccc1)C(=O)N[C@@H](CS)C(=O)N[C@H](C(=O)N[C@@H](CCC(N)=O)C(=O)N[C@@H](Cc1ccc(O)cc1)C(=O)N[C@@H](CC(N)=O)C(=O)N[C@H](C(=O)N[C@@H](CCCNC(=N)N)C(=O)N[C@@H](CO)C(=O)N[C@@H](Cc1ccccc1)C(=O)N[C@@H](CCSC)C(=O)N[C@@H](CC(N)=O)C(=O)N[C@H](C(=O)N[C@@H](CCCCN)C(=O)N[C@@H](Cc1c[nH]cn1)C(=O)N[C@@H](Cc1c[nH]c2ccccc12)C(=O)N1CCC[C@H]1C(=O)N[C@@H](Cc1c[nH]c2ccccc12)C(N)=O)C(C)C)[C@@H](C)CC)[C@@H](C)CC [HC153] (H-ARKRGFLAKKEYQRMKERREAIFCIQYNIRSFMNVKHWPW-NH2; linker 3-10, 9-16 via Suc (inferred); N-terminus and C-terminus assumed) was run?
The pIC50 was 4.96.

How did the pIC50 [3] turn out when CCCC[C@H](NC(=O)[C@H](Cc1c[nH]c2ccccc12)NC(=O)[C@@H]1CCCN1C(=O)[C@H](Cc1c[nH]c2ccccc12)NC(=O)[C@H](Cc1c[nH]cn1)N(C)C(=O)[C@H](CCCCN)NC(=O)[C@@H](NC(=O)[C@H](CC(N)=O)NC(=O)[C@H](CCCC)NC(=O)[C@H](Cc1ccccc1)NC(=O)[C@H](CO)NC(=O)[C@H](CCCNC(=N)N)NC(=O)[C@@H](NC(=O)[C@H](CC(N)=O)NC(=O)[C@H](Cc1ccc(O)cc1)NC(=O)[C@H](CCC(N)=O)NC(=O)[C@@H](NC(=O)[C@H](CS)NC(=O)[C@H](Cc1ccccc1)NC(=O)[C@@H](NC(=O)[C@H](C)N)[C@@H](C)CC)[C@@H](C)CC)[C@@H](C)CC)C(C)C)C(=O)N[C@@H](CCCCN)C(N)=O [HC200] (H-AIFCIQYNIRSF[Nle]NVK[NMeH]WPW[Nle]K-NH2; N-terminus assumed) was run?
Its pIC50 is 5.85.

Which “inhibition of myosin's procoagulant activity” value ([1]; up to 0.7 mM) does the source give for Cc1ccc(S(=O)(=O)NCc2ccccc2)cc1 [N-benzyl-p-toluene sulfonamide, reference compound] here?
Its value is “did not inhibit”.

How did the “inhibition of myosin-supported prothrombin activation” value ([1]; dose-dependent studies, FIG. 4, TFP 0-100 μM, ELC peptides 0-300 μM) turn out when CN1CCN(CCCN2c3ccccc3Sc3ccc(C(F)(F)F)cc32)CC1 [TFP, trifluoperazine, reference compound] was run?
Its value is “inhibits”.

How did the “inhibition of myosin's procoagulant activity” value ([1]; up to 50 μM) turn out when COC(=O)N1CCN(Cc2cccc(NC(=O)Nc3ccc(C)nc3)c2F)CC1 [omecamtiv mecarbil, reference compound] was run?
Its value is “did not inhibit”.

With “Ac-GAELRHVLATLGEKMKEEEVEALMA-NH (Ac-GAELRHVLATLGEKMKEEEVEALMA-NH2) [ELC149-173]” as the molecule, how does the “inhibition of myosin-supported prothrombin activation at 100 μM” value [1] read?
The value was “did not”.

Which “inhibition of myosin-supported prothrombin activation at 100 μM” value [1] does the source give for “Ac-SNEELNAKKIEFEQFLPMMQAISN-NH2 [ELC99-122]” here?
Its value is “did not”.

“QEEIKNMWAAFPPDVGGNVDYKNICYVITH (Ac-QEEIKNMWAAFPPDVGGNVDYKNICYVITH-NH2) [RLC133-162]” was tested. Which pIC50 [3] did it give?
The pIC50 was 4.60.

How did the pIC50 [3] turn out when “RVFDKEGNGTVMGAELRHVL (Ac-RVFDKEGNGTVMGAELRHVL-NH2) [ELC138-157]” was run?
The pIC50 was 4.12.

How did the pIC50 [3] turn out when “YEDFVEGLRVFDKEGN (Ac-YEDFVEGLRVFDKEGN-NH2) [ELC129-144]” was run?
The pIC50 was roughly 4.15.
